Test results: patent US20110201648A1, “POLY-HETEROARYL DERIVATIVES FOR THE TREATMENT OF CANCER” (INSTITUT CURIE, priority 2008, published 2011)

Legend:
[1] = tested on: FPf1T (plasmodium telomeric quadruplex-DNA); assay: FRET-melting assay with FPf1T; assay type: binding, Plasmodium falciparum; settings: 0.2 μM FPf1T, 1 μM compound
Experimental: (§1) Stabilization, and so interaction, of compounds with quadruplex-structure is monitored via FRET-melting assay, in a version that also enables the determination of the quadruplex-over duplex-DNA selectivity as well as the intra-quadruplex selectivity (17).
(§2) FRET assay is performed with oligonucleotides that mimic the human or plasmodium telomeric sequences, and equipped with FRET partners at each extremities: F21T (FAM-G3[T2AG3]3-Tamra,) FPf1T (FAM-G3[T3AG3]3-Tamra) and FPf8T (FAM-G3[T2CAG3]3-Tamra) with FAM: 6-carboxyfluorescein and Tamra: 6-carboxy-tetramethylrhodamine). Measurements were made with excitation at 492 nm and detection at 516 nm.
(§3) Fluorescence melting were carried out. The results are given on FIG. 3A-FIG. 3C. The experiments were carried out with 0.2 μM of F21T, FPf1T or FPf8T in a buffer containing 10 mM lithium cacodylate pH 7.2 and 100 mM NaCl or KCl (see example of F21T below, NaCl (left) and KCl (right)); the melting of the quadruplex-DNA was monitored alone and in the presence of 1 μM (5 equiv.) of compound 3.

[2] = tested on: FPf8T (plasmodium telomeric quadruplex-DNA); assay: FRET-melting assay with FPf8T; assay type: binding, Plasmodium falciparum; settings: 0.2 μM FPf8T, 1 μM compound
Experimental: as §1, §2, §3

[3] = Fluorescence quantum yield; assay type: physicochemical; settings: anthracene in ethanol as reference
Experimental: Pyridine-based polyheteroaromatic compounds detailed in this study are characterized by a strong fluorescence. Remarkably, the quantum yield is not affected by the nature of the solvent they are used in, from pure organic (e.g. DMSO) to physiological conditions (e.g. buffer: 10 mM sodium cacodylate+100 mM KCl, pH 7.2, see Table). The modification of the fluorescence properties of studied compounds upon interaction with DNA enables to compare their apparent binding affinity for several quadruplexes of biological relevance (27).
NB: the quantum yields (and standard deviations (s.d.)) of compound 3 were measured in CH2Cl2 (DCM) and water, with anthracene in ethanol as reference.

c-kit2 quadruplex-DNA [4] = assay: Fluorescence titration with c-kit2; assay type: binding; settings: 0.25 μM compound, cacodylate buffer + 100 mM KCl, λex=340 nm
Experimental: The intra-quadruplex selectivity is evaluated through fluorescence titrations by comparison of experiments carried out with 22AG (see above) and with two other quadruplex-structures: c-myc and c-kit2. The formation of these two quadruplex-DNAs is currently highly suspected in the promoter region of c-myc (see above) and c-kit (22; 29 and 30)oncogenes. The sequences are the following: c-myc: [5′-[…]-3′] and c-kit2: [(5′-[…]-3′]; Quadruplex-structures are prepared by heating the corresponding oligonucleotide at 90° C. for 5 min in a 10 mM sodium cacodylate buffer pH 7.2, 100 mM KCl and cooling in ice to favor the intramolecular folding by kinetic trapping. Concentrations are determined by UV-Vis measurements (after thermal denaturation, 5 min at 85° C.) at 260 nm before use.

22AG quadruplex-DNA = assay: Circular dichroism with 22AG; assay type: binding, human
Experimental: (§4) Circular dichroism (CD) enables a deep study of the modification of the DNA structure upon the binding of a ligand; it thus reflects the affinity of the ligand to its target, and can also provide insight into its binding mode (Paramasivan et al, Methods, 2007, 43, 324).
The quadruplex-DNA used herein is 22AG (see above), annealed both in a 10 mM sodium cacodylate buffer pH 7.2, 100 mM NaCl (for 22AG Na) or KCl (for 22AG K). To a 3 μM solution of 22AG in both buffers is added an excess of compound 3 (30 μM, 10 equiv.).
The equilibrium between folded and unfolded forms of 22AG oligonucleotide is highly sensitive to the presence and the nature of the buffer it is used in. In low cationic buffer like 10 mM Tris.HCl, pH 7.2, 22AG is mostly unfolded (random coiled); it is thus possible to influence the folded <-> unfolded equilibrium by adding compound 3. Thus, to a 3 μM solution of random coiled 22AG in Tris.HCl buffer are added increasing amounts of compound 3 (from 0 to 7.5 equiv.); it results in a deep modification of the CD signal of 22AG, with a disappearance of the random coiled-typical 257 nm signal to the benefit of two novel maxima, one positive (near 290 nm) and one negative (near 265 nm), both being typical of the CD signature of ‘anti-parallel’ quadruplex-DNA structure (as 22AG Na, see above).

c-kit2 quadruplex-DNA [5] = assay: Circular dichroism with c-kit2; assay type: binding; settings: 3 μM c-kit2, 30 μM compound, 100 mM KCl, 285 nm
Experimental: as §4
The intra-quadruplex selectivity is evaluated through CD by comparison of experiments carried out with 22AG (see above) and with two other quadruplex-structures: c-myc and c-kit2 (see above). The results are given on FIG. 11A and FIG. 11B. To a 3 μM solution of both c-kit2 (left) and c-myc (right) in cacodylate buffer (10 mM sodium cacodylate+100 mM KCl) is added an excess of compound 3 (30 μM, 10 equiv.).

[6] = tested on: HT1080GFP-POT1 human fibrosarcoma and U20S human osteosarcoma cells; assay: Inhibition of cell proliferation, viable cell count with trypan blue; assay type: cell-based; settings: 72 hours, read-out: IC50 proliferation of cancer cells
Experimental: The HT1080 human fibrosarcoma cell line stably transfected with pEGFP-POT1 vector (HT1080GFP-POT1) has been previously described (32) and U20S human osteosarcoma was from American Type Culture Collection (Rockville, USA). Cells were grown in Dublecco's modified Eagles's medium (Invitrogen) supplemented with 10% v/v fetal bovine serum and with 400 μg/ml geneticin for HT1080GFP-POT1. Cells were plated in 6-wells culture plates on day 0 at 4.5×10^4 cells/well in the presence of different concentrations of compound 3 (10, 3, 1, 0.3 and 0.1 μM), each concentration in duplicate, and cultured for further 72 hours. At day 3, cells were washed with 1×PBS and trypsinized. For each treated cell sample, the number of viable cells was determined in the presence of trypan blue. Results are given on FIG. 15A and FIG. 15B. They correspond to the relative cell number in percent as compared to control untreated cells defined as 100%.

With `c1cc(-c2cnc(-c3cccc(-c4cnco4)n3)o2)nc(-c2cnc(-c3cccc(-c4cnco4)n3)o2)c1` [compound 3, 2,6-bis{2-[6-(oxazol-5-yl)pyridin-2-yl]oxazol-5-yl}pyridine] the “ΔT1/2 FPf1T” value ([1]; K+ (100 mM KCl)) was 2.1 °C, the “ΔT1/2 FPf1T” value ([1]; Na+ (100 mM NaCl)) was 20.4 °C and the “ΔT1/2 FPf8T” value ([2]; K+ (100 mM KCl)) was 1.5 °C. The “ΔT1/2 FPf8T” value ([2]; Na+ (100 mM NaCl)) was 16.3 °C, the Quantum yield ([3]; DCM (CH2Cl2)) was 50.35% and the Quantum yield ([3]; Water) was 50.37%. The “fluorescence of compound upon addition of c-kit2” value (c-kit2 quadruplex-DNA [4]) was “progressive quench of the fluorescence”, the “CD signal of 22AG K” value (22AG quadruplex-DNA; 3 μM 22AG, 30 μM compound (10 equiv.), 100 mM KCl, 263 nm) was “reorganises completely the structure” and the “CD signal of 22AG Na” value (22AG quadruplex-DNA; 3 μM 22AG, 30 μM compound (10 equiv.), 100 mM NaCl, 263 nm) was “modification of the amplitude of the CD signal”. The “quadruplex-structure induction (folded/unfolded equilibrium of 22AG)” value (22AG quadruplex-DNA; 3 μM random coiled 22AG in 10 mM Tris.HCl pH 7.2, 0 to 7.5 equiv. compound) was “able to shift the equilibrium between the unfolded and the folded form of 22AG toward the folded one”, the “CD signal of c-kit2” value (c-kit2 quadruplex-DNA [5]) was “modification of the amplitude of the CD signal” and the IC50 [6] was 100 to 1000 nM.
